Results taken from ChEMBL document CHEMBL3994622, “Design and synthesis of new RAF kinase-inhibiting antiproliferative quinoline derivatives. Part 2: Diarylurea derivatives” (Eur J Med Chem, 2017).

Experiments:
Type in all cases: functional
SK-MEL-28 = experiment: Growth inhibition of human SK-MEL-28 cells assessed as cell growth at 10 uM incubated for 48 hrs by sulforhodamine B assay relative to control; conditions: SK-MEL-28, 48 h, read-out: Activity
LOX IMVI = experiment: Growth inhibition of human LOXIMVI cells assessed as cell growth at 10 uM incubated for 48 hrs by sulforhodamine B assay relative to control; conditions: read-out: Activity
U-251 = experiment: Growth inhibition of human U251 cells assessed as cell growth at 10 uM incubated for 48 hrs by sulforhodamine B assay relative to control; conditions: U-251, 48 h, read-out: Activity
SF-295 = experiment: Growth inhibition of human SF295 cells assessed as cell growth at 10 uM incubated for 48 hrs by sulforhodamine B assay relative to control; conditions: SF-295, 48 h, read-out: Activity
SNB-75 = experiment: Growth inhibition of human SNB75 cells assessed as cell growth at 10 uM incubated for 48 hrs by sulforhodamine B assay relative to control; conditions: SNB-75, 48 h, read-out: Activity
OVCAR-3 = experiment: Growth inhibition of human OVCAR3 cells assessed as cell growth at 10 uM incubated for 48 hrs by sulforhodamine B assay relative to control; conditions: OVCAR-3, 48 h, read-out: Activity
SK-MEL-2 = experiment: Growth inhibition of human SK-MEL-2 cells assessed as cell growth at 10 uM incubated for 48 hrs by sulforhodamine B assay relative to control; conditions: SK-MEL-2, 48 h, read-out: Activity
HT-29 = experiment: Growth inhibition of human HT-29 cells assessed as cell growth at 10 uM incubated for 48 hrs by sulforhodamine B assay relative to control; conditions: HT-29, 48 h, read-out: Activity
UO-31 = experiment: Growth inhibition of human UO31 cells assessed as cell growth at 10 uM incubated for 48 hrs by sulforhodamine B assay relative to control; conditions: UO-31, 48 h, read-out: Activity
OVCAR-4 = experiment: Growth inhibition of human OVCAR4 cells assessed as cell growth at 10 uM incubated for 48 hrs by sulforhodamine B assay relative to control; conditions: OVCAR-4, 48 h, read-out: Activity
EKVX = experiment: Growth inhibition of human EKVX cells assessed as cell growth at 10 uM incubated for 48 hrs by sulforhodamine B assay relative to control; conditions: read-out: Activity
RXF 393 = experiment: Growth inhibition of human RXF393 cells assessed as cell growth at 10 uM incubated for 48 hrs by sulforhodamine B assay relative to control; conditions: RXF 393, 48 h, read-out: Activity
UACC-257 = experiment: Growth inhibition of human UACC257 cells assessed as cell growth at 10 uM incubated for 48 hrs by sulforhodamine B assay relative to control; conditions: UACC-257, 48 h, read-out: Activity
DU-145 = experiment: Growth inhibition of human DU145 cells assessed as cell growth at 10 uM incubated for 48 hrs by sulforhodamine B assay relative to control; conditions: DU-145, 48 h, read-out: Activity
HOP-92 = experiment: Growth inhibition of human HOP92 cells assessed as cell growth at 10 uM incubated for 48 hrs by sulforhodamine B assay relative to control; conditions: HOP-92, 48 h, read-out: Activity
MDA-MB-435 = experiment: Growth inhibition of human MDA-MB-435 cells assessed as cell growth at 10 uM incubated for 48 hrs by sulforhodamine B assay relative to control; conditions: MDA-MB-435, 48 h, read-out: Activity
SK-MEL-5 = experiment: Growth inhibition of human SK-MEL-5 cells assessed as cell growth at 10 uM incubated for 48 hrs by sulforhodamine B assay relative to control; conditions: SK-MEL-5, 48 h, read-out: Activity
T47D = experiment: Growth inhibition of human T47D cells assessed as cell growth at 10 uM incubated for 48 hrs by sulforhodamine B assay relative to control; conditions: read-out: Activity
MCF7 = experiment: Growth inhibition of human MCF7 cells assessed as cell growth at 10 uM incubated for 48 hrs by sulforhodamine B assay relative to control; conditions: MCF7, 48 h, read-out: Activity
PC-3 = experiment: Growth inhibition of human PC3 cells assessed as cell growth at 10 uM incubated for 48 hrs by sulforhodamine B assay relative to control; conditions: PC-3, 48 h, read-out: Activity
HOP-62 = experiment: Growth inhibition of human HOP62 cells assessed as cell growth at 10 uM incubated for 48 hrs by sulforhodamine B assay relative to control; conditions: HOP-62, 48 h, read-out: Activity
RPMI-8226 = experiment: Growth inhibition of human RPMI8226 cells assessed as cell growth at 10 uM incubated for 48 hrs by sulforhodamine B assay relative to control; conditions: RPMI-8226, 48 h, read-out: Activity
COLO 205 = experiment: Growth inhibition of human COLO205 cells assessed as cell growth at 10 uM incubated for 48 hrs by sulforhodamine B assay relative to control; conditions: COLO 205, 48 h, read-out: Activity
BT-549 = experiment: Growth inhibition of human BT549 cells assessed as cell growth at 10 uM incubated for 48 hrs by sulforhodamine B assay relative to control; conditions: BT-549, 48 h, read-out: Activity
SW-620 = experiment: Growth inhibition of human SW620 cells assessed as cell growth at 10 uM incubated for 48 hrs by sulforhodamine B assay relative to control; conditions: SW-620, 48 h, read-out: Activity
SF-539 = experiment: Growth inhibition of human SF539 cells assessed as cell growth at 10 uM incubated for 48 hrs by sulforhodamine B assay relative to control; conditions: SF-539, 48 h, read-out: Activity
786-0 = experiment: Growth inhibition of human 786-0 cells assessed as cell growth at 10 uM incubated for 48 hrs by sulforhodamine B assay relative to control; conditions: 786-0, 48 h, read-out: Activity
Malme-3M = experiment: Growth inhibition of human MALME-3M cells assessed as cell growth at 10 uM incubated for 48 hrs by sulforhodamine B assay relative to control; conditions: read-out: Activity
K562 = experiment: Growth inhibition of human K562 cells assessed as cell growth at 10 uM incubated for 48 hrs by sulforhodamine B assay relative to control; conditions: K562, 48 h, read-out: Activity
NCI/ADR-RES = experiment: Growth inhibition of human NCI/ADR-RES cells assessed as cell growth at 10 uM incubated for 48 hrs by sulforhodamine B assay relative to control; conditions: read-out: Activity
HCC 2998 = experiment: Growth inhibition of human HCC2998 cells assessed as cell growth at 10 uM incubated for 48 hrs by sulforhodamine B assay relative to control; conditions: HCC 2998, 48 h, read-out: Activity
HCT-15 = experiment: Growth inhibition of human HCT15 cells assessed as cell growth at 10 uM incubated for 48 hrs by sulforhodamine B assay relative to control; conditions: HCT-15, 48 h, read-out: Activity
OVCAR-8 = experiment: Growth inhibition of human OVCAR8 cells assessed as cell growth at 10 uM incubated for 48 hrs by sulforhodamine B assay relative to control; conditions: OVCAR-8, 48 h, read-out: Activity

`COc1cc2cc(Oc3ccc(NC(=O)Nc4ccc(Cl)c(C(F)(F)F)c4)cc3)c(C)nc2cc1OC` gave a growth at 10 µM (SK-MEL-28) of -35.9%, a growth at 10 µM (LOX IMVI) of -81.3% and a growth at 10 µM (U-251) of -80.4%. The growth at 10 µM (SF-295) was -70.9%, the growth at 10 µM (SNB-75) was 12.4% and the growth at 10 µM (OVCAR-3) was -27.3%. The growth at 10 µM (SK-MEL-2) was -49.8%, the growth at 10 µM (HT-29) was -24.9% and the growth at 10 µM (UO-31) was -45.1%. The growth at 10 µM (OVCAR-4) was 17.1%, the growth at 10 µM (EKVX) was 8.83% and the growth at 10 µM (RXF 393) was -33.4%. The growth at 10 µM (UACC-257) was -12.5%, the growth at 10 µM (DU-145) was 12.7% and the growth at 10 µM (HOP-92) was -22.3%. For the same molecule, the growth at 10 µM (MDA-MB-435) was -25.7%, the growth at 10 µM (SK-MEL-5) was -73.4% and the growth at 10 µM (T47D) was 21.4%. The growth at 10 µM (MCF7) was 2.59%, the growth at 10 µM (PC-3) was -0.61% and the growth at 10 µM (HOP-62) was -51%. It also gave a growth at 10 µM (RPMI-8226) of -26.4%, a growth at 10 µM (COLO 205) of -49.5% and a growth at 10 µM (BT-549) of -38.7%. For the same molecule, the growth at 10 µM (SW-620) was 7.51%, the growth at 10 µM (SF-539) was -36.2% and the growth at 10 µM (786-0) was -21.1%. It also gave a growth at 10 µM (Malme-3M) of -23%, a growth at 10 µM (K562) of -9.54% and a growth at 10 µM (NCI/ADR-RES) of 2.01%. The growth at 10 µM (HCC 2998) was -13.1%, the growth at 10 µM (HCT-15) was 1.27% and the growth at 10 µM (OVCAR-8) was 7.34%.

`COc1cc2cc(Oc3ccc(NC(=O)Nc4cccc(C(F)(F)F)c4)cc3)c(C)nc2cc1OC` was tested, and the growth at 10 µM (SK-MEL-28) was 26.7%, the growth at 10 µM (LOX IMVI) was 9.78% and the growth at 10 µM (U-251) was -85.7%. For the same molecule, the growth at 10 µM (SF-295) was -15.1%, the growth at 10 µM (SNB-75) was 13.1% and the growth at 10 µM (OVCAR-3) was -0.54%. For the same molecule, the growth at 10 µM (SK-MEL-2) was -35.8%, the growth at 10 µM (HT-29) was 6.56% and the growth at 10 µM (UO-31) was 11.3%. It also gave a growth at 10 µM (OVCAR-4) of 31.7%, a growth at 10 µM (EKVX) of 15.4% and a growth at 10 µM (RXF 393) of -13.1%. It also gave a growth at 10 µM (UACC-257) of -14.5%, a growth at 10 µM (DU-145) of 26.7% and a growth at 10 µM (HOP-92) of -29.5%. For the same molecule, the growth at 10 µM (MDA-MB-435) was 7.23%, the growth at 10 µM (SK-MEL-5) was -86.1% and the growth at 10 µM (T47D) was 27.8%. The growth at 10 µM (MCF7) was 6.81%, the growth at 10 µM (PC-3) was 0.08% and the growth at 10 µM (HOP-62) was 25%. The growth at 10 µM (RPMI-8226) was -5.94%, the growth at 10 µM (COLO 205) was -20.2% and the growth at 10 µM (BT-549) was -8.13%. For the same molecule, the growth at 10 µM (SW-620) was 17.5%, the growth at 10 µM (SF-539) was 11.7% and the growth at 10 µM (786-0) was 15.1%. For the same molecule, the growth at 10 µM (Malme-3M) was 7.22%, the growth at 10 µM (K562) was 11.5% and the growth at 10 µM (NCI/ADR-RES) was 6.98%. For the same molecule, the growth at 10 µM (HCC 2998) was 25.4%, the growth at 10 µM (HCT-15) was 15.2% and the growth at 10 µM (OVCAR-8) was 8.32%.
